Data from patent US20220289708A1, “SUBSTITUTED N-PHENYL URACILS, SALTS THEREOF AND THEIR USE AS HERBICIDAL AGENTS” (Bayer Aktiengesellschaft, priority 2019, published 2022).

Assays:
Assay in all cases: Post-emergence herbicidal action
Type in all cases: in vivo
Setaria viridis = conditions: application rate 20 g/ha, rated visually after about 3 weeks vs untreated controls
Description: (§1) a. Post-Emergence Herbicidal Action and Crop Plant Compatibility Seeds of monocotyledonous and dicotyledonous weeds and crop plants were placed in sandy loam in plastic or wood-fiber pots, covered with soil and cultivated in a greenhouse under controlled growth conditions. 2 to 3 weeks after sowing, the test plants were treated at the one-leaf stage. The compounds of the invention, formulated in the form of wettable powders (WP) or as emulsion concentrates (EC), were then sprayed onto the green parts of the plants as aqueous suspension or emulsion with addition of 0.5% additive at a water application rate of 600 l/ha (converted). After the test plants had been kept in the greenhouse under optimum growth conditions for about 3 weeks, the activity of the preparations was rated visually in comparison to untreated controls. For example, 100% activity=the plants have died, 0% activity=like control plants. Tables A1 to A15 below show the effects of selected compounds of the general formula (I) according to Tables I.1 to I.36 on various harmful plants and at an application rate corresponding to 20 g/ha and less, which were obtained by the experimental procedure mentioned above.

Lolium rigidum = conditions: application rate 20 g/ha, rated visually after about 3 weeks vs untreated controls
Description: as §1

Echinochloa crus-galli = conditions: application rate 20 g/ha, rated visually after about 3 weeks vs untreated controls
Description: as §1

Pharbitis purpurea = conditions: application rate 20 g/ha, rated visually after about 3 weeks vs untreated controls
Description: as §1

Veronica persica = conditions: application rate 20 g/ha
Description: as §1

Matricaria inodora = conditions: application rate 20 g/ha, rated visually after about 3 weeks vs untreated controls
Description: as §1

Amaranthus retroflexus = conditions: application rate 20 g/ha, rated visually after about 3 weeks vs untreated controls
Description: as §1

Abutilon theophrasti = conditions: application rate 20 g/ha, rated visually after about 3 weeks vs untreated controls
Description: as §1

Digitaria sanguinalis = conditions: application rate 20 g/ha, rated visually after about 3 weeks vs untreated controls
Description: as §1

Polygonum convolvulus = conditions: application rate 20 g/ha
Description: as §1

Alopecurus myosuroides = conditions: application rate 20 g/ha, rated visually after about 3 weeks vs untreated controls
Description: as §1

Viola tricolor = conditions: application rate 20 g/ha
Description: as §1

Avena fatua = conditions: application rate 20 g/ha, rated visually after about 3 weeks vs untreated controls
Description: as §1

For `CCOCCOC(=O)COc1ncccc1Oc1cc(-n2c(=O)cc(C(F)(F)F)n(C)c2=O)c(F)cc1Cl` [I.15-2], the “Setaria viridis (efficacy in %)” value (Setaria viridis) was 100%, the “Lolium rigidum (efficacy in %)” value (Lolium rigidum) was 90% and the “Echinochloa crus-galli (efficacy in %)” value (Echinochloa crus-galli) was 100%. For the same compound, the “Pharbitis purpurea (efficacy in %)” value (Pharbitis purpurea) was 100%, the “Veronica persica (efficacy in %)” value (Veronica persica) was 100% and the “Matricaria inodora (efficacy in %)” value (Matricaria inodora) was 100%. For the same compound, the “Amaranthus retroflexus (efficacy in %)” value (Amaranthus retroflexus) was 100%, the “Abutilon theophrasti (efficacy in %)” value (Abutilon theophrasti) was 100% and the “Digitaria sanguinalis (efficacy in %)” value (Digitaria sanguinalis) was 100%. For the same compound, the “Polygonum convolvulus (efficacy in %)” value (Polygonum convolvulus) was 100%, the “Alopecurus myosuroides (efficacy in %)” value (Alopecurus myosuroides) was 100% and the “Viola tricolor (efficacy in %)” value (Viola tricolor) was 100%. The “Avena fatua (efficacy in %)” value (Avena fatua) was 90%.

With `Cc1nn(C)cc1COC(=O)COc1ncccc1Oc1cc(-n2c(=O)cc(C(F)(F)F)n(C)c2=O)c(F)cc1Cl` [I.15-366] the “Setaria viridis (efficacy in %)” value (Setaria viridis) was 100%, the “Lolium rigidum (efficacy in %)” value (Lolium rigidum) was 90% and the “Echinochloa crus-galli (efficacy in %)” value (Echinochloa crus-galli) was 100%. The “Pharbitis purpurea (efficacy in %)” value (Pharbitis purpurea) was 100%, the “Veronica persica (efficacy in %)” value (Veronica persica) was 100% and the “Matricaria inodora (efficacy in %)” value (Matricaria inodora) was 100%. For the same compound, the “Amaranthus retroflexus (efficacy in %)” value (Amaranthus retroflexus) was 100%, the “Abutilon theophrasti (efficacy in %)” value (Abutilon theophrasti) was 100% and the “Digitaria sanguinalis (efficacy in %)” value (Digitaria sanguinalis) was 100%. The “Alopecurus myosuroides (efficacy in %)” value (Alopecurus myosuroides) was 100%, the “Viola tricolor (efficacy in %)” value (Viola tricolor) was 100% and the “Avena fatua (efficacy in %)” value (Avena fatua) was 90%.

For `Cc1c(COC(=O)COc2ncccc2Oc2cc(-n3c(=O)cc(C(F)(F)F)n(C)c3=O)c(F)cc2Cl)cnn1C` [I.15-367], the “Setaria viridis (efficacy in %)” value (Setaria viridis) was 100%, the “Lolium rigidum (efficacy in %)” value (Lolium rigidum) was 80% and the “Echinochloa crus-galli (efficacy in %)” value (Echinochloa crus-galli) was 100%. For the same compound, the “Pharbitis purpurea (efficacy in %)” value (Pharbitis purpurea) was 100%, the “Veronica persica (efficacy in %)” value (Veronica persica) was 100% and the “Matricaria inodora (efficacy in %)” value (Matricaria inodora) was 100%. The “Amaranthus retroflexus (efficacy in %)” value (Amaranthus retroflexus) was 100%, the “Abutilon theophrasti (efficacy in %)” value (Abutilon theophrasti) was 100% and the “Digitaria sanguinalis (efficacy in %)” value (Digitaria sanguinalis) was 100%. For the same compound, the “Alopecurus myosuroides (efficacy in %)” value (Alopecurus myosuroides) was 100%, the “Viola tricolor (efficacy in %)” value (Viola tricolor) was 100% and the “Avena fatua (efficacy in %)” value (Avena fatua) was 90%.

For `CCn1cc(COC(=O)COc2ncccc2Oc2cc(-n3c(=O)cc(C(F)(F)F)n(C)c3=O)c(F)cc2Cl)c(C)n1` [I.15-368], the “Setaria viridis (efficacy in %)” value (Setaria viridis) was 100%, the “Lolium rigidum (efficacy in %)” value (Lolium rigidum) was 90% and the “Echinochloa crus-galli (efficacy in %)” value (Echinochloa crus-galli) was 100%. For the same compound, the “Pharbitis purpurea (efficacy in %)” value (Pharbitis purpurea) was 100%, the “Veronica persica (efficacy in %)” value (Veronica persica) was 100% and the “Matricaria inodora (efficacy in %)” value (Matricaria inodora) was 100%. The “Amaranthus retroflexus (efficacy in %)” value (Amaranthus retroflexus) was 100%, the “Abutilon theophrasti (efficacy in %)” value (Abutilon theophrasti) was 100% and the “Digitaria sanguinalis (efficacy in %)” value (Digitaria sanguinalis) was 100%. The “Alopecurus myosuroides (efficacy in %)” value (Alopecurus myosuroides) was 100%, the “Viola tricolor (efficacy in %)” value (Viola tricolor) was 100% and the “Avena fatua (efficacy in %)” value (Avena fatua) was 100%.

In the case of `CCS(=O)(=O)NCCOC(=O)COc1ncccc1Oc1cc(-n2c(=O)cc(C(F)(F)F)n(C)c2=O)c(F)cc1Cl` [I.15-421], the “Setaria viridis (efficacy in %)” value (Setaria viridis) is reported as 100%, the “Lolium rigidum (efficacy in %)” value (Lolium rigidum) is reported as 100% and the “Echinochloa crus-galli (efficacy in %)” value (Echinochloa crus-galli) is reported as 100%. The “Pharbitis purpurea (efficacy in %)” value (Pharbitis purpurea) was 100%, the “Veronica persica (efficacy in %)” value (Veronica persica) was 100% and the “Matricaria inodora (efficacy in %)” value (Matricaria inodora) was 100%. The “Amaranthus retroflexus (efficacy in %)” value (Amaranthus retroflexus) was 100%, the “Abutilon theophrasti (efficacy in %)” value (Abutilon theophrasti) was 100% and the “Digitaria sanguinalis (efficacy in %)” value (Digitaria sanguinalis) was 100%. The “Polygonum convolvulus (efficacy in %)” value (Polygonum convolvulus) was 100%, the “Alopecurus myosuroides (efficacy in %)” value (Alopecurus myosuroides) was 100% and the “Viola tricolor (efficacy in %)” value (Viola tricolor) was 100%. For the same compound, the “Avena fatua (efficacy in %)” value (Avena fatua) was 100%.

`CCOC(COC(=O)COc1ncccc1Oc1cc(-n2c(=O)cc(C(F)(F)F)n(C)c2=O)c(F)cc1Cl)OCC` [I.15-422] was tested, and the “Setaria viridis (efficacy in %)” value (Setaria viridis) was 100%, the “Lolium rigidum (efficacy in %)” value (Lolium rigidum) was 100% and the “Echinochloa crus-galli (efficacy in %)” value (Echinochloa crus-galli) was 100%. For the same compound, the “Pharbitis purpurea (efficacy in %)” value (Pharbitis purpurea) was 100%, the “Veronica persica (efficacy in %)” value (Veronica persica) was 100% and the “Matricaria inodora (efficacy in %)” value (Matricaria inodora) was 100%. For the same compound, the “Amaranthus retroflexus (efficacy in %)” value (Amaranthus retroflexus) was 100%, the “Abutilon theophrasti (efficacy in %)” value (Abutilon theophrasti) was 100% and the “Digitaria sanguinalis (efficacy in %)” value (Digitaria sanguinalis) was 100%. The “Polygonum convolvulus (efficacy in %)” value (Polygonum convolvulus) was 100%, the “Alopecurus myosuroides (efficacy in %)” value (Alopecurus myosuroides) was 100% and the “Viola tricolor (efficacy in %)” value (Viola tricolor) was 100%. For the same compound, the “Avena fatua (efficacy in %)” value (Avena fatua) was 80%.

`COCCOC(=O)COc1ncccc1Oc1cc(-n2c(=O)cc(C(F)(F)F)n(C)c2=O)c(F)cc1Br` [I.16-1] was tested, and the “Setaria viridis (efficacy in %)” value (Setaria viridis) was 100%, the “Lolium rigidum (efficacy in %)” value (Lolium rigidum) was 90% and the “Echinochloa crus-galli (efficacy in %)” value (Echinochloa crus-galli) was 100%. The “Pharbitis purpurea (efficacy in %)” value (Pharbitis purpurea) was 100%, the “Veronica persica (efficacy in %)” value (Veronica persica) was 100% and the “Matricaria inodora (efficacy in %)” value (Matricaria inodora) was 100%. The “Amaranthus retroflexus (efficacy in %)” value (Amaranthus retroflexus) was 100%, the “Abutilon theophrasti (efficacy in %)” value (Abutilon theophrasti) was 100% and the “Digitaria sanguinalis (efficacy in %)” value (Digitaria sanguinalis) was 100%. The “Polygonum convolvulus (efficacy in %)” value (Polygonum convolvulus) was 100%, the “Alopecurus myosuroides (efficacy in %)” value (Alopecurus myosuroides) was 100% and the “Viola tricolor (efficacy in %)” value (Viola tricolor) was 100%. For the same compound, the “Avena fatua (efficacy in %)” value (Avena fatua) was 90%.

In the case of `CCOCCOC(=O)COc1ncccc1Oc1cc(-n2c(=O)cc(C(F)(F)F)n(C)c2=O)c(F)cc1Br` [I.16-2], the “Setaria viridis (efficacy in %)” value (Setaria viridis) is reported as 100%, the “Lolium rigidum (efficacy in %)” value (Lolium rigidum) is reported as 100% and the “Echinochloa crus-galli (efficacy in %)” value (Echinochloa crus-galli) is reported as 100%. For the same compound, the “Pharbitis purpurea (efficacy in %)” value (Pharbitis purpurea) was 100%, the “Veronica persica (efficacy in %)” value (Veronica persica) was 100% and the “Matricaria inodora (efficacy in %)” value (Matricaria inodora) was 100%. The “Amaranthus retroflexus (efficacy in %)” value (Amaranthus retroflexus) was 100%, the “Abutilon theophrasti (efficacy in %)” value (Abutilon theophrasti) was 100% and the “Digitaria sanguinalis (efficacy in %)” value (Digitaria sanguinalis) was 100%. For the same compound, the “Polygonum convolvulus (efficacy in %)” value (Polygonum convolvulus) was 100%, the “Alopecurus myosuroides (efficacy in %)” value (Alopecurus myosuroides) was 100% and the “Viola tricolor (efficacy in %)” value (Viola tricolor) was 100%. For the same compound, the “Avena fatua (efficacy in %)” value (Avena fatua) was 100%.

`COCCOCCOC(=O)COc1ncccc1Oc1cc(-n2c(=O)cc(C(F)(F)F)n(C)c2=O)c(F)cc1Br` [I.16-23] was tested, and the “Setaria viridis (efficacy in %)” value (Setaria viridis) was 100%, the “Lolium rigidum (efficacy in %)” value (Lolium rigidum) was 100% and the “Echinochloa crus-galli (efficacy in %)” value (Echinochloa crus-galli) was 100%. The “Pharbitis purpurea (efficacy in %)” value (Pharbitis purpurea) was 100%, the “Veronica persica (efficacy in %)” value (Veronica persica) was 100% and the “Matricaria inodora (efficacy in %)” value (Matricaria inodora) was 100%. The “Amaranthus retroflexus (efficacy in %)” value (Amaranthus retroflexus) was 100%, the “Abutilon theophrasti (efficacy in %)” value (Abutilon theophrasti) was 100% and the “Digitaria sanguinalis (efficacy in %)” value (Digitaria sanguinalis) was 100%. The “Polygonum convolvulus (efficacy in %)” value (Polygonum convolvulus) was 100%, the “Alopecurus myosuroides (efficacy in %)” value (Alopecurus myosuroides) was 100% and the “Viola tricolor (efficacy in %)” value (Viola tricolor) was 100%. The “Avena fatua (efficacy in %)” value (Avena fatua) was 100%.

`COCCOCCOC(=O)COc1ncccc1Oc1cc(-n2c(=O)cc(C(F)(F)F)n(C)c2=O)c(F)cc1C#N` [I.35-23] was tested, and the “Setaria viridis (efficacy in %)” value (Setaria viridis) was 100%, the “Echinochloa crus-galli (efficacy in %)” value (Echinochloa crus-galli) was 100% and the “Pharbitis purpurea (efficacy in %)” value (Pharbitis purpurea) was 100%. The “Veronica persica (efficacy in %)” value (Veronica persica) was 100%, the “Matricaria inodora (efficacy in %)” value (Matricaria inodora) was 100% and the “Amaranthus retroflexus (efficacy in %)” value (Amaranthus retroflexus) was 100%. The “Abutilon theophrasti (efficacy in %)” value (Abutilon theophrasti) was 100%, the “Digitaria sanguinalis (efficacy in %)” value (Digitaria sanguinalis) was 100% and the “Alopecurus myosuroides (efficacy in %)” value (Alopecurus myosuroides) was 100%. For the same compound, the “Viola tricolor (efficacy in %)” value (Viola tricolor) was 100% and the “Avena fatua (efficacy in %)” value (Avena fatua) was 90%.

In the case of `COCCOCCOC(=O)COc1ncc(F)cc1Oc1cc(-n2c(=O)cc(C(F)(F)F)n(C)c2=O)c(F)cc1Cl` [I.36-23], the “Setaria viridis (efficacy in %)” value (Setaria viridis) is reported as 100%, the “Lolium rigidum (efficacy in %)” value (Lolium rigidum) is reported as 90% and the “Echinochloa crus-galli (efficacy in %)” value (Echinochloa crus-galli) is reported as 100%. The “Pharbitis purpurea (efficacy in %)” value (Pharbitis purpurea) was 100%, the “Veronica persica (efficacy in %)” value (Veronica persica) was 100% and the “Matricaria inodora (efficacy in %)” value (Matricaria inodora) was 100%. For the same compound, the “Amaranthus retroflexus (efficacy in %)” value (Amaranthus retroflexus) was 100%, the “Abutilon theophrasti (efficacy in %)” value (Abutilon theophrasti) was 100% and the “Digitaria sanguinalis (efficacy in %)” value (Digitaria sanguinalis) was 100%. For the same compound, the “Polygonum convolvulus (efficacy in %)” value (Polygonum convolvulus) was 90%, the “Alopecurus myosuroides (efficacy in %)” value (Alopecurus myosuroides) was 100% and the “Viola tricolor (efficacy in %)” value (Viola tricolor) was 100%.
